The values that follow come from US6524863B1, “High throughput HPLC method for determining Log P values” (Scynexis Chemistry & Automation, Inc., priority 1999, dated 2003).

Where two headings read alike, the source gives them in different places.

By chromatographic logP is commonly meant lipophilicity estimated from chromatographic retention.

One series is described as follows: Isocratic HPLC Log P. The settings on record: for Isocratic Log P: isocratic method, no details given.
Series [1] is described as follows: Gradient HPLC Log P determination from retention time (new method).
Protocol: (§1) An evaporated light scattering detector (Richard Scientific) and a platform LC mass spectrometer (Micromass) were used as detectors.
(§2) The mobile phase was a binary gradient of methanol/water. The stationary phase was a 4.6×50 mm column packed with 5 micron ODS-AQ. The injection size was 5 μL. The mobile phase gradient was adjusted to obtain a Log P nearly equal to the retention time on the HPLC column.
(§3) After 6.1 minutes, the column was set to re-equilibrate.
(§4) Retention times (X), shake flask log P (Y), slope and intercept from the above plot were used to calculate log P for these standards.
(§5) When log P was plotted versus the log of the capacity factor K for these standards, an following exponential curve was obtained, as shown in FIG. 3.
(§6) Using this exponential equation and HPLC retention times of these standards, Log P and Log K were calculated and compared with the retention times and literature Log P values.
Series [2] in a line: physchem.
Description: (§7) Isocratic data, measured at certain eluent compositions (typically as log k′x, for a given eluent composition X), can be used to calculate Log P data.
The nature of series [3]: physchem. This is another data set of the same source.
Protocol: as §1, §2, §3, §4, §5, §6
For series [4] the following is noted: cited from earlier work.
[5] abbreviates: New Method Calc. Log P Y = 1.009X + 0.029, calculated from average gradient HPLC retention time X (ODS-AQ 4.6×50 mm, methanol/water), linear fit.
The mark [6] stands for this setting: New Method Calc. Log P Y = 1.009X + 0.029.
The mark [7] stands for this setting: Log P calc. by slope, calculated from Log K (capacity factor) with exponential equation Y=0.6972e^1.5966X.
Setting [8] is: shake flask Log P values (lit.), Table 2.
[9] abbreviates: shake flask, literature, Table 3.
[10] abbreviates: shake flask, literature, Table 4.

Description for Isocratic HPLC Log P: as §7

Regarding `O=c1cc[nH]c(=O)[nH]1` [standard 1, uracil], the chromatographic logP is -1.05 in the series “Isocratic HPLC Log P” and 0.32 in series [1] (setting [5]).
For the compound `Cc1ccc2cc(C)ccc2c1` [standard 11, 2,6-dimethyl napthalene], the “Isocratic Log P” value in “Isocratic HPLC Log P” came to 4.49.
With `Cc1ccc(Cl)cc1` [standard 8, p-chloro toluene], the chromatographic logP was 3.57 in the series “physchem [2]”, 3.74 in “physchem [3]” (Log P calc. by slope) and 3.74 in “physchem [3]” (setting [6]).
Turning to `COc1ccc(C(c2ccc(OC)cc2)C(Cl)(Cl)Cl)cc1` [standard 15, methoxychlor], the results for the chromatographic logP in “physchem [2]”, in the series “physchem [3]” (Log P calc. by slope) and in “physchem [3]” (setting [6]) were 4.26, 4.37 and 4.61, respectively.
For `CCCN(CCC)c1c([N+](=O)[O-])cc(C(F)(F)F)cc1[N+](=O)[O-]` [standard 14, trifluralin], the results for the chromatographic logP in “physchem [2]”, in “physchem [3]” (Log P calc. by slope) and in the series “physchem [3]” (setting [6]) were 5, 4.57 and 4.88, respectively.
Take `CC(=O)c1ccccc1` [standard 6, acetophenone]: the values for the chromatographic logP (in “Isocratic HPLC Log P”; in series [1] (setting [7]); in series [1] (setting [5])) were 2.54, 2.22 and 1.94, respectively. The “Lit. Log P” value in series [4] (setting [8]), in series [4] (setting [9]) and in series [4] (setting [10]) was 2.13 each time.
Regarding `NC(=O)c1ccccc1` [standard 2, benzamide], the chromatographic logP in “Isocratic HPLC Log P” was 0.41; in series [1] (setting [7]), 0.58; in series [1] (setting [5]), 0.56.
Regarding `c1ccc(Sc2ccccc2)cc1` [standard 13, phenyl sulfide], the figures for the chromatographic logP (in the series “Isocratic HPLC Log P”; in series [1] (setting [7]); in series [1] (setting [5])) were 4.31, 4.17 and 4.33, respectively. Moreover, the “Lit. Log P” value in series [4] (setting [8]), in series [4] (setting [9]) and in series [4] (setting [10]) was 4.45 each time.
Turning to `CNC(=O)c1ccccc1` [standard 3, N-methyl benzamide], the chromatographic logP in the series “Isocratic HPLC Log P” was 0.96; in series [1] (setting [7]), 0.75; in series [1] (setting [5]) it was 0.68. Further, the “Lit. Log P” value in series [4] (setting [8]), in series [4] (setting [9]) and in series [4] (setting [10]) was 0.86 in each case.
As to `CCOP(=S)(OCC)Oc1ccc([N+](=O)[O-])cc1` [standard 9, diethyl parathion], in the series “Isocratic HPLC Log P”, the “Isocratic Log P” value is given as 3.39.
For the compound `ClC(Cl)=C(c1ccc(Cl)cc1)c1ccc(Cl)cc1` [standard 16, DDE], the “Isocratic Log P” value in “Isocratic HPLC Log P” is 6.28.
Consider `Brc1ccccc1` [standard 7, bromobenzene], for which the chromatographic logP in “physchem [2]” is 3.23; in the series “physchem [3]” (Log P calc. by slope), 3.5; in the series “physchem [3]” (setting [6]) it was 3.44.
`c1ccc(-c2ccccc2)cc1` [standard 10, biphenyl]: the “Log P calc. by slope” value in series [1] (calculated from Log K (capacity factor) with exponential equation Y=0.6972e^1.5966X) is on record as 3.98. Besides, the figures for the chromatographic logP in “physchem [2]” and in the series “physchem [3]” (setting [6]) were 3.8 and 4.07, respectively.
Turning to `OCc1ccccc1` [standard 4, benzyl alcohol], the chromatographic logP in the series “Isocratic HPLC Log P” was 0.96; in series [1] (setting [5]), 0.98.
Regarding `c1ccc2cc3ccccc3cc2c1` [standard 12, anthracene], the figures for the chromatographic logP in the series “physchem [2]” and in the series “physchem [3]” (Log P calc. by slope) were 4.46 and 4.27, respectively.
